Measurements from patent US20230127839A1, “COMPOUNDS AND COMPOSITIONS FOR TREATING CONDITIONS ASSOCIATED WITH STING ACTIVITY” (IFM Due, Inc., priority 2019, published 2023).

Target: T1, hSTING (Homo sapiens, UniProt Q86WV6, G230A/H232R/R293Q/R71H)
T1 construct: host or cells: THP1-Dual KO-IFNAR2 cells
Test: STING reporter assay (luciferase) in THP1-Dual KO-IFNAR2 cells stimulated with 2'3'cGAMP
Type: cell-based
Settings: 2'3'cGAMP 15 μM, 24 h, luciferase reporter activity
Procedure, shortened: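 THP1-Dual KO-IFNAR2 cells (2×10E6 cells/mL) exposed to compounds at 0.0017-100 μM final, then stimulated with 2′3′cGAMP (15 μM final) delivered by Lipofectamine 2000 transfection. After 24 h at 37° C, secreted luciferase in supernatant read by QUANTI-Luc luminescence; EC50 calculated.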

T1 sequence (Q86WV6 whole entry R71H/G230A/H232R/R293Q): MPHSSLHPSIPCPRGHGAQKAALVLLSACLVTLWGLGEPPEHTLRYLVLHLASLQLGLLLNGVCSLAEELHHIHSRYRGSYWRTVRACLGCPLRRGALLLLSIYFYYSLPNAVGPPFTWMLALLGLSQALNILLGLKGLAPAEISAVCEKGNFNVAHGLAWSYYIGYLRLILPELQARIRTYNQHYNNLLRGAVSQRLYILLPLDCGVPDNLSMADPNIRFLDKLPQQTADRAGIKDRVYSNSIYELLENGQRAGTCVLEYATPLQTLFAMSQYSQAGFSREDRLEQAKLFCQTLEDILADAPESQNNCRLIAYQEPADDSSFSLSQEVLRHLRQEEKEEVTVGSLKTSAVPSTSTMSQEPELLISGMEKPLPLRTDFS

SMILES | EC50
O=C(Nc1ccc(C2CC(F)(F)C2)c(Cl)c1)Nc1c[nH]c2ccccc12 [Compound 246, 1-(3-chloro-4-(3,3-difluorocyclobutyl)phenyl)-3-(1H-indol-3-yl)urea] | 40 to 200 nM
O=C(Nc1cnc(C2CCC(F)(F)CC2)c(Cl)c1)Nc1c[nH]c2c(Br)cc(Cl)cc12 [Compound 247, 1-(7-bromo-5-chloro-1H-indol-3-yl)-3-(5-chloro-6-(4,4-difluorocyclohexyl)pyridin-3-yl)urea] | 200 to 1000 nM
O=C(Nc1cnc(C2CCC(F)(F)CC2)c(Cl)c1)Nc1c[nH]c2ccccc12 [Compound 248, 1-(5-chloro-6-(4,4-difluorocyclohexyl)pyridin-3-yl)-3-(1H-indol-3-yl)urea] | 40 to 200 nM
O=C(Nc1cnc(N2CC3(CN(CC(F)(F)F)C3)C2)c(F)c1)Nc1c[nH]c2ccc(Cl)cc12 [Compound 249, 1-(5-chloro-1H-indol-3-yl)-3-(5-fluoro-6-(6-(2,2,2-trifluoroethyl)-2,6-diazaspiro[3.3]heptan-2-yl)pyridin-3-yl)urea] | 200 to 1000 nM
O=C(Nc1cnc(N2CC3(CN(CC(F)(F)F)C3)C2)c(Cl)c1)Nc1c[nH]c2ccccc12 [Compound 250, 1-(5-chloro-6-(6-(2,2,2-trifluoroethyl)-2,6-diazaspiro[3.3]heptan-2-yl)pyridin-3-yl)-3-(1H-indol-3-yl)urea] | 200 to 1000 nM
O=C(Nc1cnc(N2CCN(CC(F)(F)F)CC2)c(F)c1)Nc1c[nH]c2cc(F)c(F)cc12 [Compound 251, 1-(5,6-difluoro-1H-indol-3-yl)-3-(5-fluoro-6-(4-(2,2,2-trifluoroethyl)piperazin-1-yl)pyridin-3-yl)urea] | 40 to 200 nM
O=C(Nc1ccc(N2CCN(CCC(F)(F)F)CC2)nc1)Nc1c[nH]c2ccc(F)cc12 [Compound 252, 1-(5-fluoro-1H-indol-3-yl)-3-(6-(4-(3,3,3-trifluoropropyl)piperazin-1-yl)pyridin-3-yl)urea] | 200 to 1000 nM
O=C(Nc1ccc(N2CCN(CC(F)(F)F)CC2)nc1)Nc1c[nH]c2ccc(F)cc12 [Compound 253, 1-(5-fluoro-1H-indol-3-yl)-3-(6-(4-(2,2,2-trifluoroethyl)piperazin-1-yl)pyridin-3-yl)urea] | 200 to 1000 nM
O=C(Nc1ccnc(C2CCC(F)(F)CC2)c1)Nc1c[nH]c2ccccc12 [Compound 254, 1-(2-(4,4-difluorocyclohexyl)pyridin-4-yl)-3-(1H-indol-3-yl)urea] | 200 to 1000 nM
O=C(Nc1ccnc(C2CCC(F)(F)CC2)c1)Nc1c[nH]c2ccc(Cl)cc12 [Compound 255, 1-(5-chloro-1H-indol-3-yl)-3-(2-(4,4-difluorocyclohexyl)pyridin-4-yl)urea] | 200 to 1000 nM
O=C(Nc1cncc(C2CCC(F)(F)CC2)c1)Nc1c[nH]c2ccc(Cl)cc12 [Compound 256, 1-(5-chloro-1H-indol-3-yl)-3-(5-(4,4-difluorocyclohexyl)pyridin-3-yl)urea] | 200 to 1000 nM
N#Cc1cc(NC(=O)Nc2c[nH]c3ccc(Cl)cc23)cnc1C1CC(F)(F)C1 [Compound 257, 1-(5-chloro-1H-indol-3-yl)-3-(5-cyano-6-(3,3-difluorocyclobutyl)pyridin-3-yl)urea] | 40 to 200 nM
CN(C(=O)Nc1c[nH]c2ccc(Cl)cc12)c1cnc(N2CCC(F)(F)CC2)c(Cl)c1 [Compound 258, 3-(5-chloro-1H-indol-3-yl)-1-(5-chloro-6-(4,4-difluoropiperidin-1-yl)pyridin-3-yl)-1-methylurea] | 200 to 1000 nM
O=C(Nc1cnc(N2CCN(CC3CC3)CC2)c(Cl)c1)Nc1c[nH]c2ccc(Cl)cc12 [Compound 260, 1-(5-chloro-1H-indol-3-yl)-3-(5-chloro-6-(4-(cyclopropylmethyl)piperazin-1-yl)pyridin-3-yl)urea] | 40 to 200 nM
O=C(Nc1cnc(N2CCN(CC(F)F)CC2)c(Cl)c1)Nc1c[nH]c2ccc(Cl)cc12 [Compound 261, 1-(5-chloro-1H-indol-3-yl)-3-(5-chloro-6-(4-(2,2-difluoroethyl)piperazin-1-yl)pyridin-3-yl)urea] | 40 to 200 nM
O=C(Nc1cnc(N2CC3(CN(CC(F)(F)F)C3)C2)c(Cl)c1)Nc1c[nH]c2ccc(Cl)cc12 [Compound 262, 1-(5-chloro-1H-indol-3-yl)-3-(5-chloro-6-(6-(2,2,2-trifluoroethyl)-2,6-diazaspiro[3.3]heptan-2-yl)pyridin-3-yl)urea] | 40 to 200 nM
CC1(C)OCC(c2ncc(NC(=O)Nc3c[nH]c4ccccc34)cc2Cl)CO1 [Compound 263, 1-(5-chloro-6-(2,2-dimethyl-1,3-dioxan-5-yl)pyridin-3-yl)-3-(1H-indol-3-yl)urea] | 200 to 1000 nM
CC1(C)OCC(c2ncc(NC(=O)Nc3c[nH]c4ccc(Cl)cc34)cc2Cl)CO1 [Compound 264, 1-(5-chloro-1H-indol-3-yl)-3-(5-chloro-6-(2,2-dimethyl-1,3-dioxan-5-yl)pyridin-3-yl)urea] | 40 to 200 nM
COC(=O)c1cc(NC(=O)Nc2c[nH]c3ccccc23)cnc1C1CCC(F)(F)CC1 [Compound 265, methyl 5-(3-(1H-indol-3-yl)ureido)-2-(4,4-difluorocyclohexyl)nicotinate] | 40 to 200 nM

SMILES | EC50
O=C(Nc1cnc(N2CCN(CC(F)(F)F)CC2)c(Cl)c1)Nc1c[nH]c2ccc(F)cc12 [Compound 266, 1-(5-chloro-6-(4-(2,2,2-trifluoroethyl)piperazin-1-yl)pyridin-3-yl)-3-(5-fluoro-1H-indol-3-yl)urea] | 40 to 200 nM
O=C(Nc1cnc(N2CCN(CCC(F)(F)F)CC2)c(F)c1)Nc1c[nH]c2ccc(F)cc12 [Compound 267, 1-(5-fluoro-1H-indol-3-yl)-3-(5-fluoro-6-(4-(3,3,3-trifluoropropyl)piperazin-1-yl)pyridin-3-yl)urea] | 40 to 200 nM
O=C(Nc1cnc(C2CCN(CC(F)(F)F)CC2)c(Cl)c1)Nc1c[nH]c2ccc(F)cc12 [Compound 268, 1-(5-chloro-6-(1-(2,2,2-trifluoroethyl)piperidin-4-yl)pyridin-3-yl)-3-(5-fluoro-1H-indol-3-yl)urea] | 40 to 200 nM
O=C(Nc1cnc(N2CCN(CC(F)(F)F)CC2)c(Cl)c1)Nc1c[nH]c2cc(F)c(F)cc12 [Compound 269, 1-(5-chloro-6-(4-(2,2,2-trifluoroethyl)piperazin-1-yl)pyridin-3-yl)-3-(5,6-difluoro-1H-indol-3-yl)urea] | 40 to 200 nM
O=C(Nc1cnc(C2CCN(CC(F)(F)F)CC2)c(F)c1)Nc1c[nH]c2ccc(F)cc12 [Compound 270, 1-(5-fluoro-1H-indol-3-yl)-3-(5-fluoro-6-(1-(2,2,2-trifluoroethyl)piperidin-4-yl)pyridin-3-yl)urea] | 40 to 200 nM
O=C(Nc1cnc(C2CCN(CC(F)(F)F)CC2)c(F)c1)Nc1c[nH]c2ccccc12 [Compound 271, 1-(5-fluoro-6-(1-(2,2,2-trifluoroethyl)piperidin-4-yl)pyridin-3-yl)-3-(1H-indol-3-yl)urea] | 200 to 1000 nM
O=C(Nc1ccc(C2CC(F)(F)C2)c(F)c1)Nc1c[nH]c2ccc(F)cc12 [Compound 272, 1-(4-(3,3-difluorocyclobutyl)-3-fluorophenyl)-3-(5-fluoro-1H-indol-3-yl)urea] | 40 to 200 nM
O=C(Nc1ccc(N2CCC(F)(F)CC2)nc1)Nc1c[nH]c2ccc(F)cc12 [Compound 273, 1-(6-(4,4-difluoropiperidin-1-yl)pyridin-3-yl)-3-(5-fluoro-1H-indol-3-yl)urea] | 200 to 1000 nM
O=C(Nc1cnc(N2CCC(F)(F)CC2)c(F)c1)Nc1c[nH]c2ccc(F)cc12 [Compound 274, 1-(6-(4,4-difluoropiperidin-1-yl)-5-fluoropyridin-3-yl)-3-(5-fluoro-1H-indol-3-yl)urea] | 40 to 200 nM
O=C(Nc1cnc(N2CCC3(CC2)CC(F)(F)C3)c(Cl)c1)Nc1c[nH]c2ccc(Cl)cc12 [Compound 275, 1-(5-chloro-1H-indol-3-yl)-3-(5-chloro-6-(2,2-difluoro-7-azaspiro[3.5]nonan-7-yl)pyridin-3-yl)urea] | 40 to 200 nM
Cc1cc(NC(=O)Nc2c[nH]c3ccccc23)cnc1C1CCN(CC(F)(F)F)CC1 [Compound 276, 1-(1H-indol-3-yl)-3-(5-methyl-6-(1-(2,2,2-trifluoroethyl)piperidin-4-yl)pyridin-3-yl)urea] | 200 to 1000 nM
O=C(Nc1cnc(C2CC(F)(F)C2)c(Cl)c1)Nc1c[nH]c2ccc(F)cc12 [Compound 277, 1-(5-chloro-6-(3,3-difluorocyclobutyl)pyridin-3-yl)-3-(5-fluoro-1H-indol-3-yl)urea] | 40 to 200 nM
O=C(Nc1cnc(N2CCN(CC(F)(F)F)CC2)c(F)c1)Nc1c[nH]c2ccccc12 [Compound 278, 1-(5-fluoro-6-(4-(2,2,2-trifluoroethyl)piperazin-1-yl)pyridin-3-yl)-3-(1H-indol-3-yl)urea] | 200 to 1000 nM
O=C(Nc1cnc(C2CCN(CC(F)(F)F)CC2)c(Cl)c1)Nc1c[nH]c2ccccc12 [Compound 279, 1-(5-chloro-6-(1-(2,2,2-trifluoroethyl)piperidin-4-yl)pyridin-3-yl)-3-(1H-indol-3-yl)urea] | 40 to 200 nM
O=C(Nc1ccc(N2CCN(CC(F)(F)F)CC2)nc1)Nc1c[nH]c2ccccc12 [Compound 280, 1-(1H-indol-3-yl)-3-(6-(4-(2,2,2-trifluoroethyl)piperazin-1-yl)pyridin-3-yl)urea] | 200 to 1000 nM
O=C(Nc1cnc(N2CCC3(CCCCO3)CC2)c(Cl)c1)Nc1c[nH]c2ccccc12 [Compound 281, 1-(5-chloro-6-(1-oxa-9-azaspiro[5.5]undecan-9-yl)pyridin-3-yl)-3-(1H-indol-3-yl)urea] | 40 to 200 nM
O=C(Nc1ccc(C2CC(F)(F)C2)c(F)c1)Nc1c[nH]c2ccccc12 [Compound 282, 1-(4-(3,3-difluorocyclobutyl)-3-fluorophenyl)-3-(1H-indol-3-yl)urea] | 200 to 1000 nM
O=C(Nc1cnc(C2CC(F)(F)C2)c(Cl)c1)Nc1c[nH]c2ccccc12 [Compound 283, 1-(5-chloro-6-(3,3-difluorocyclobutyl)pyridin-3-yl)-3-(1H-indol-3-yl)urea] | 40 to 200 nM
